From paper PMC10813298, “Evidence of Guanidines Potential against Leishmania (Viannia) braziliensis: Exploring In Vitro Effectiveness, Toxicities and of Innate Immunity Response Effects” (Biomolecules, 2023) come the findings set out here.

For data set [1], the system named is L. (V.) braziliensis intramacrophage amastigotes. In words: Treatment of RAW 264.7 macrophages infected with L. (V.) braziliensis (intramacrophage amastigotes). Type of data set: cell-based, Leishmania (Viannia) braziliensis. The conditions noted are these: RAW 264.7 infected with L. (V.) braziliensis, 72 h of treatment. On the procedure: RAW 264.7 macrophages (1 × 10^6 cells/mL) were seeded in 24-well plates containing sterile glass slides, and approximately 500 μL of supplemented DMEM medium was added. The plates were then incubated at 37 °C with 5% CO2 for 4 h to facilitate cell adhesion. Following the adhesion period, promastigotes (1 × 10^7) in the stationary growth phase were introduced into the wells for infection. The plates were then incubated for an additional 4 h to allow infection to take place. Afterward, the medium was carefully removed, and the wells were washed three times with PBS to eliminate any nonadherent cells. Fresh medium containing serial concentrations of the test substances, ranging from 0.78 to 25 μmol/L, was added to the wells. Additionally, a range of concentrations of glucantime (25 to 800 μmol/L) was included for comparison. The treatment was carried out for 72 h in an incubator at 37 °C with 5% CO2. At the end of the 72 h treatment period, the glass lamina was removed from each well and stained using rapid panoptic stain (Laborklin®, Curitiba, Paraná, Brazil). The stained samples were mounted on permanent slides using Entelan® (Sigma-Aldrich, St. Louis, MO, USA), and antileishmanial activity was assessed by measuring the infection rate and counting the number of amastigotes per macrophage. Quantification was performed using light microscopy at a magnification of 1000×, and a total of 300 macrophages per lamina were evaluated. As a negative control, half DMEM containing 0.2% DMSO was used.

In a further data set the test system is nitric oxide (NO). The experiment in a line: Nitric oxide synthesis induction (Griess) in infected macrophages. Type of data set: cell-based, murine. The conditions noted are these: supernatant of RAW 264.7 macrophages infected with L. (V.) braziliensis. On the procedure: To evaluate the induction of nitric oxide (NO) synthesis, the following procedure was conducted: In 96-well plates, 100 μL of the supernatants obtained from the macrophage infection assays by L. (V.) braziliensis were placed. An equal volume of Griess® reagent (obtained from Sigma-Aldrich, St. Louis, MO, USA) was added to each well. In parallel, the same procedure was carried out using known concentrations of sodium nitrite (NaNO2, obtained from Vertec Química Fina, Duque de Caxias, RJ, Brazil) ranging from 125 to 2 μmol/L, which were prepared in RPMI medium. This was performedto generate a standard curve. The plates were then incubated at room temperature for 10 min. Subsequently, the absorbance of the samples was measured in a plate reader at a wavelength of 545 nm. The concentration of nitrite in the supernatants was determined by interpolating the absorbance values onto the standard curve.
(In general: Griess reagent forms a coloured azo dye with nitrite.)

The next data set concerns terminal ileum. The experiment in a line: Spasmolytic effect on terminal ileum (KCl contraction). The conditions noted are these: guinea pig terminal ilea, KCl-induced contraction. On the procedure: Guinea pigs of either sex weighing between 250 or 380 g were utilized in this study. The animals were housed in a controlled environment in an air-conditioned room, maintaining a temperature of 22 to 24 °C and a relative humidity of 50% to 60%. A 12 h light–dark cycle was maintained.
On the day of the experiments, the animals were euthanized via cervical dislocation. The heart, aorta, pulmonary artery, and ileum were surgically removed and immersed in Krebs–Henseleit solution, with the following composition: NaCl 144.9 mM, KCl 4.73 mM, CaCl2 3.2 mM, MgSO4 1.18 mM, NaHCO3 24.9 mM, KH2PO4 1.18 mM, and glucose 10 mM, with the pH maintained at 7.2–7.4. This solution was continuously aerated with a mixture of 95% O2 and 5% CO2.
Papillary muscles were isolated from the right ventricle of the heart and meticulously cleared of Purkinje fibers to prevent spontaneous activity. To ensure adequate oxygen supply, only muscles with a diameter less than 0.87 mm were used. The right atrium was also dissected for assessment of chronotropic activity. Both the aorta and pulmonary artery were cleaned and cut into 5 mm rings, while the ileum was sectioned into pieces measuring 1 to 2 cm.
One end of the dissected tissues was securely tied with silver wire for attachment to a tissue holder, while the other end was connected to a force transducer (Transbridge™, 4-Channel Transducer Amplifier, World Precision Instruments, Sarasota, FL, USA). For contractile measurements, the terminal ileum was stimulated with 60 mM KCl, and the pulmonary artery and aorta rings were exposed to a 90 mM KCl solution. Papillary muscles were electrically stimulated using an Anapulse Stimulator Model 301-T and an Isolation Unit Model 305-1 (WPI, Hamden, CT, USA) with rectangular pulses of 3 ms duration at a frequency of 1 Hz. The amplitude of the stimulation pulse was maintained at 10% above the threshold level. To optimize contractility, a constant resting tension was applied throughout the experiment: 3.9 mN for papillary muscle, 4.9 mN for terminal ileum, 10.4 mN for the right atrium, and 19.6 mN for aorta and pulmonary artery rings.
Following a 30 min control period, different concentrations of test compounds were cumulatively added to the bath solution every 45 min until a stable effect was achieved. The responses were recorded using a chart recorder (BD 112 Dual Channel, Kipp &Zonen, PO Box 507, 2624 BC, Delft, Holland) for subsequent evaluation. Stock concentrations of the test compounds were prepared using DMSO. To account for any potential DMSO effect, control experiments were conducted with the solvent alone, and the observed effects were subtracted from the responses elicited by the test compounds.

A further data set has as its system A549. In words: Cell toxicity, MTT-based EZ4U assay, A549. Further details: species or system human. The note with it: A549, 1.56–500 µmol/L. The method, then:
In this study, we utilized the RAW 264.7 macrophages line (obtained from ATCC: code TIB-71™),human embryonic kidney cell line HEK-293 (obtained from ATCC: code CRL-1573™)and two human cancer cell cultures: the colon carcinoma cell line CaCo-2 and the adenocarcinomic human alveolar basal epithelial cell A549 (also obtained from ATCC: codesHTB-37™ and CCL-185™).These cell lines were cultured in Dulbecco’s modified Eagle medium (DMEM) from Gibco by Life Technologies (LifeTech Austria, Vienna, Austria). The growth medium was supplemented with 5% fetal bovine serum (FBS) from Gibco by Life Technologies and 1% penicillin-streptomycin obtained from Sigma-Aldrich (Vienna, Austria). The cells were maintained at 37 °C with 5% CO2 in a humidified incubator, and regular checks for mycoplasma contamination were carried out.
For experimental purposes, the cells were seeded into 96-well plates at a density of 2 × 10^4 cells/mL, with each well containing 100 µL of the cell suspension. The cells were allowed to adhere for 24 h. […] The stock solutions of these compounds were prepared in water with 10% (v/v) dimethyl sulfoxide (DMSO) and stored at 4 °C.
To assess cell viability after 72 h of exposure to the compounds, we employed a 3-(4,5-dimethylthiazol-2-yl)-2,5-diphenyltetrazolium bromide (MTT)-based vitality assay kit (EZ4U, Biomedica, Vienna, Austria). Briefly, we added 20 µL of the EZ4U assay solution to each well and incubated the plates in the dark for 2 h. Subsequently, we measured the absorbance using a microplate reader at 450 nm, with 620 nm as a reference to reduce unspecific background values. For reliability, all experiments were conducted three times with triplicate samples.

Setting [2] is: Leishmania braziliensis, RAW264.7, 72 h.

SMILES strings stand for the structures.

`O=C(/N=C(/NCc1ccccc1)Nc1ccc([N+](=O)[O-])cc1)c1ccccc1` [LQOF-G1, (Z)-N-benzoyl-N-benzyl-N-(4-nitrophenyl)guanidine]: the EC50 was found to be 3.65 µM in data set [1] (setting [2]) and 3.6 ± 0.2 µM in data set [1]. Moreover, in the data set on nitric oxide (NO), the NO level result is given as “increased”. Moreover, the “spasmolytic effect / contraction force in the terminal ileum” value (from here on “spasmolytic effect / contraction force”) with terminal ileum is recorded as “decrease in contraction force”. Moreover, the “toxic effects on cell viability” value with A549 is “No toxic effects”.

For the molecule `O=C(/N=C(/NCc1ccccc1)Nc1ccc(Br)cc1)c1ccccc1` [LQOF-G2, (Z)-N-benzoyl-N-benzyl-N-(4-bromophenyl)guanidine], the EC50 in data set [1] (setting [2]) stood at 4.21 µM; in data set [1], 4.2 ± 0.5 µM. Moreover, the NO level result in the data set with nitric oxide (NO) is “increased”. Also, the “spasmolytic effect / contraction force” value in the data set with terminal ileum is reported as “decrease in contraction force”. The “toxic effects on cell viability” value in the data set on A549 is “No toxic effects”.

For `CC(C)(C)c1ccc(N/C(=N\C(=O)c2ccccc2)NCc2ccccc2)cc1` [LQOF-G6, (Z)-N-benzoyl-N-benzyl-N-(4-tert-butylphenyl)guanidine], the EC50 in data set [1] (setting [2]) was determined as 3.89 µM; in data set [1], 3.9 ± 0.1 µM. For the same molecule, the NO level entry in the data set on nitric oxide (NO) is “increased”.

Turning to `O=C(/N=C(/NCc1ccccc1)Nc1ccc(I)cc1)c1ccccc1` [LQOF-G7, (Z)-N-benzoyl-N-benzyl-N-(4-iodophenyl)guanidine], the EC50 in data set [1] (setting [2]) was determined as 8.25 µM; in data set [1] it was 8.2 ± 0.7 µM. In addition, the “spasmolytic effect / contraction force” value in the data set on terminal ileum is on record as “decrease in contraction force”.

Consider `O=C(/N=C(/NCc1ccc(Cl)cc1Cl)Nc1ccc(Br)cc1)c1ccccc1` [LQOF-G32, (Z)-N-benzoyl-N-(2,4-di-chlorobenzyl)-N-(4-bromophenyl)guanidine], for which the “spasmolytic effect / contraction force” value in the data set with terminal ileum was “decrease in contraction force”. The “toxic effects on cell viability” value with A549 is on record as “No toxic effects”.

For orientation: EC50 means the concentration at which the effect is half-maximal.
